# According to article PMC4156305, “Structure Driven Design of Novel Human Ether-A-Go-Go-Related-Gene Channel (hERG1) Activators” (PLoS ONE, 2014):
# Target: T1, hERG1 (Homo sapiens, UniProt Q12809)
# T1 construct: expressed in transfected cells; host or cells: HEK 293
# Test: Whole cell patch-clamp of hERG1 currents in transfected HEK 293 cells
# Format: cell-based
# Set-up: Inactivation ΔV0.3: unit not given here
# Details: 1 µM
# Procedure: Transfected HEK cells on glass cover slips were placed in a chamber mounted on a modified stage of an inverted microscope. The chamber was superfused at a rate of 2 mL/min with a normal external solution. The extracellular solution contained (in mM) NaCl 140, KCl 5.4, CaCl2 1, MgCl2 1, HEPES 5, glucose 5.5, pH 7.4, with NaOH. Micropipettes were pulled from borosilicate glass capillary tubes on a programmable horizontal puller (Sutter Instruments, Novato, CA). Standard patch-clamp methods were used to measure the whole cell currents of hERG1 mutants expressed in HEK 293 cells using the AXOPATCH 200B amplifier (Axon Instruments). Unless otherwise indicated, tail currents were recorded when the voltage was returned to −50 mV from +50 mV. Further details on electrophysiological methods are collected in Methods S1.
# Electrophysiology Protocol:
# The pipette solution contained the following (at mM concentration): KCl 10, K-aspartate 110, MgCl2 5, Na2ATP 5, EGTA 10, HEPES 5, and CaCl2 1. The solution was adjusted to pH 7.2 with KOH. The extracellular solution contained the following (at mM concentration): NaCl 140, KCl 5.4, CaCl2 1, MgCl2 1, HEPES 5, and glucose 5.5. The solution was adjusted to pH 7.4 with NaOH. For IKr measurements, the whole cell configuration of the patch clamp method was used. The series resistance was less than 7
# MΩ. The data were sampled at 1 kHz. The holding potential was -80 mV. The activation of hERG tail currents was induced by depolarization to a range of potentials from +50 to -100 mV in 10 mV steps for 1 second. This was followed by repolarization to -100 mV for 1 second to record the tail currents.
# -100 mV, a -120 mV 1 second pre-pulse was applied to completely close the hERG channels before subsequent depolarization. All of the tail currents reported in this manuscript represent dofetilide-sensitive currents. The inactivation of hERG was measured by a previously reported triple-pulse protocol5, 6. The holding potential was -80 mV. The hERG channel was first depolarized to +50 mV for 1 second. Recovery from inactivation was achieved using a short pulse (a 10 ms hyperpolarization) to -120 mV, followed by the application of test pulses from -100 to 0 mV for 1 second in 10 mV steps.
# A voltage of -100 mV was selected because it was on the flat part of the inactivation-voltage relationship. The methods employed are identical to ones previously reported. […]
# T1 sequence (Q12809 whole entry): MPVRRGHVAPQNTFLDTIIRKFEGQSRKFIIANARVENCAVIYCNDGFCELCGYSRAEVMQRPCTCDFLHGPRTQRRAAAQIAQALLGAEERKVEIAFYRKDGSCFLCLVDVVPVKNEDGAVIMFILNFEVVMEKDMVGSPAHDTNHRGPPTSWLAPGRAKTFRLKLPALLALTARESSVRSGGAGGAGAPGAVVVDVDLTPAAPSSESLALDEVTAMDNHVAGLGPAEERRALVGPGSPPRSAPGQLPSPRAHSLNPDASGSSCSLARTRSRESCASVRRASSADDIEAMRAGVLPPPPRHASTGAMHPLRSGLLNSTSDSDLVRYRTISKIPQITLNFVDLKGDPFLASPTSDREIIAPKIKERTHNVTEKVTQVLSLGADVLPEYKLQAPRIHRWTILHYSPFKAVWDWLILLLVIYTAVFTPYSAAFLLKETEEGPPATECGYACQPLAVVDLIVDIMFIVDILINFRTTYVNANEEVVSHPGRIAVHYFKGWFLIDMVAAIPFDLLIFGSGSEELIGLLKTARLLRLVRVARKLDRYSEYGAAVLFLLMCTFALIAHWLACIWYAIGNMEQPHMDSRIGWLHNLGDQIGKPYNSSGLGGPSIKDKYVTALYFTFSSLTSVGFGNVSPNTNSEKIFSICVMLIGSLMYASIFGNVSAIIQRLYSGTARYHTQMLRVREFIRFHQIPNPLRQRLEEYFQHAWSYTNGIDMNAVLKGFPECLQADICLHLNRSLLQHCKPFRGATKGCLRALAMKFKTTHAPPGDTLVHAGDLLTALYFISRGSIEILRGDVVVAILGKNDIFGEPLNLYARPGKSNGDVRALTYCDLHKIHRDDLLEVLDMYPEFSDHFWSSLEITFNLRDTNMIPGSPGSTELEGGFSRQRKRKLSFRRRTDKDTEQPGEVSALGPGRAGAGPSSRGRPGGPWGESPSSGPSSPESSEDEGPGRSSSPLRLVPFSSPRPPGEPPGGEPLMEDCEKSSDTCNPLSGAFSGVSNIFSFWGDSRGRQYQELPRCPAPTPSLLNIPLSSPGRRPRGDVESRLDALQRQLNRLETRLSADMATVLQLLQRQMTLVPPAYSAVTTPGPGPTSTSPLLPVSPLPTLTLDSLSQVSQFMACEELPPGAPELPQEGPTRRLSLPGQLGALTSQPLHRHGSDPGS
row,SMILES,pharmacologic activity
1,C[C@H](NS(=O)(=O)c1ccc(N)cc1)C(=O)NC(=O)Nc1cc(C(F)(F)F)ccc1O [Compound 13],no pharmacologic activity

# Same assay, conditions: Conc. 2 µM; deactivation time constant relative to baseline
row,SMILES,Deactivation Δλ/λcon
1,C[C@H](NCc1ccc(F)cc1)C(=O)NC(=O)Nc1cc(C(F)(F)F)ccc1O [Compound 3],1.7±0.3
2,C[C@H](NS(=O)(=O)c1ccc([N+](=O)[O-])cc1)C(=O)NC(=O)Nc1cc(C(F)(F)F)ccc1O [Compound 14],0.4±

# Same assay, conditions: Conc. 2 µM; shift in voltage-dependence of activation
row,SMILES,Activation V1/2 (mV)
1,C[C@H](NCc1ccc(F)cc1)C(=O)NC(=O)Nc1cc(C(F)(F)F)ccc1O [Compound 3],−17.3±0.3
2,C[C@H](NS(=O)(=O)c1ccc(N)cc1)C(=O)NC(=O)Nc1cc(C(F)(F)F)ccc1O [Compound 13],−2±3
3,C[C@H](NS(=O)(=O)c1ccc([N+](=O)[O-])cc1)C(=O)NC(=O)Nc1cc(C(F)(F)F)ccc1O [Compound 14],−3±0.02

# Same assay, conditions: Conc. 2 µM; shift in voltage-dependence of inactivation
row,SMILES,Inactivation ΔV0.3
1,C[C@H](NCc1ccc(F)cc1)C(=O)NC(=O)Nc1cc(C(F)(F)F)ccc1O [Compound 3],−7.5±4.5

# Same assay, conditions: Conc. 2 µM; tail current relative to baseline
row,SMILES,Amplitude I/Icon
1,C[C@H](NS(=O)(=O)c1ccc(N)cc1)C(=O)NC(=O)Nc1cc(C(F)(F)F)ccc1O [Compound 13],1.0
2,C[C@H](NS(=O)(=O)c1ccc([N+](=O)[O-])cc1)C(=O)NC(=O)Nc1cc(C(F)(F)F)ccc1O [Compound 14],0.93±0.01

# Same assay, conditions: Conc. 5 µM; deactivation time constant relative to baseline
row,SMILES,Deactivation Δλ/λcon
1,COCOc1ccc(C(F)(F)F)cc1N [Compound 20],0.03±0.01

# Same assay, conditions: Conc. 5 µM; shift in voltage-dependence of activation
row,SMILES,Activation V1/2 (mV)
1,CN(C(=O)c1cc(C(F)(F)F)ccc1Cl)c1ccccc1 [Compound 19],0
2,COCOc1ccc(C(F)(F)F)cc1N [Compound 20],−2.5±0.5

# Same assay, conditions: Conc. 5 µM; shift in voltage-dependence of inactivation
row,SMILES,Inactivation ΔV0.3
1,COCOc1ccc(C(F)(F)F)cc1N [Compound 20],0±1

# Same assay, conditions: Conc. 5 µM; tail current relative to baseline
row,SMILES,Amplitude I/Icon
1,CN(C(=O)c1cc(C(F)(F)F)ccc1Cl)c1ccccc1 [Compound 19],0.9±0.1

# Same assay, conditions: Conc. 20 µM; deactivation time constant relative to baseline
row,SMILES,Deactivation Δλ/λcon
1,C[C@H](NCc1ccc(F)cc1)C(=O)NC(=O)Nc1cc(C(F)(F)F)ccc1O [Compound 3],1.7±0.3
2,C[C@H](NS(=O)(=O)c1ccc(N)cc1)C(=O)NC(=O)Nc1cc(C(F)(F)F)ccc1O [Compound 13],0.3±0.1

# Same assay, conditions: Conc. 20 µM; shift in voltage-dependence of activation
row,SMILES,Activation V1/2 (mV)
1,C[C@H](NCc1ccc(F)cc1)C(=O)NC(=O)Nc1cc(C(F)(F)F)ccc1O [Compound 3],−17.3±0.3
2,C[C@H](NS(=O)(=O)c1ccc(N)cc1)C(=O)NC(=O)Nc1cc(C(F)(F)F)ccc1O [Compound 13],−5±3

# Same assay, conditions: Conc. 20 µM; shift in voltage-dependence of inactivation
row,SMILES,Inactivation ΔV0.3
1,C[C@H](NCc1ccc(F)cc1)C(=O)NC(=O)Nc1cc(C(F)(F)F)ccc1O [Compound 3],−7.5±4.5
2,C[C@H](NS(=O)(=O)c1ccc(N)cc1)C(=O)NC(=O)Nc1cc(C(F)(F)F)ccc1O [Compound 13],+8±0.4

# Same assay, conditions: Conc. 20 µM; shift in voltage-dependence of inactivation; listed as MC-I-159b
row,SMILES,Inactivation ΔV0.3
1,C[C@H](NS(=O)(=O)c1ccc(N)cc1)C(=O)NC(=O)Nc1cc(C(F)(F)F)ccc1O [Compound 13],significantly shifted voltage-dependence of inactivation to depolarized potentials

# Same assay, conditions: Conc. 20 µM; tail current relative to baseline
row,SMILES,Amplitude I/Icon
1,C[C@H](NCc1ccc(F)cc1)C(=O)NC(=O)Nc1cc(C(F)(F)F)ccc1O [Compound 3],0.6±0.14
2,C[C@H](NS(=O)(=O)c1ccc(N)cc1)C(=O)NC(=O)Nc1cc(C(F)(F)F)ccc1O [Compound 13],1.0

# Same assay, conditions: Conc. 50 µM; deactivation time constant relative to baseline
row,SMILES,Deactivation Δλ/λcon
1,C[C@H](NS(=O)(=O)c1ccc(N)cc1)C(=O)NC(=O)Nc1cc(C(F)(F)F)ccc1O [Compound 13],0.5±0.1
2,C[C@H](NS(=O)(=O)c1ccc([N+](=O)[O-])cc1)C(=O)NC(=O)Nc1cc(C(F)(F)F)ccc1O [Compound 14],0.6±0.3
3,CN(C(=O)c1cc(C(F)(F)F)ccc1Cl)c1ccccc1 [Compound 19],−0.2±0.08

# Same assay, conditions: Conc. 50 µM; shift in voltage-dependence of activation
row,SMILES,Activation V1/2 (mV)
1,C[C@H](NS(=O)(=O)c1ccc(N)cc1)C(=O)NC(=O)Nc1cc(C(F)(F)F)ccc1O [Compound 13],−2.5±3.0
2,C[C@H](NS(=O)(=O)c1ccc([N+](=O)[O-])cc1)C(=O)NC(=O)Nc1cc(C(F)(F)F)ccc1O [Compound 14],−7.7±3.0
3,CN(C(=O)c1cc(C(F)(F)F)ccc1Cl)c1ccccc1 [Compound 19],1±3

# Same assay, conditions: Conc. 50 µM; shift in voltage-dependence of inactivation
row,SMILES,Inactivation ΔV0.3
1,C[C@H](NS(=O)(=O)c1ccc(N)cc1)C(=O)NC(=O)Nc1cc(C(F)(F)F)ccc1O [Compound 13],+10±0.6
2,C[C@H](NS(=O)(=O)c1ccc([N+](=O)[O-])cc1)C(=O)NC(=O)Nc1cc(C(F)(F)F)ccc1O [Compound 14],2.5±3.5
3,CN(C(=O)c1cc(C(F)(F)F)ccc1Cl)c1ccccc1 [Compound 19],−2±1

# Same assay, conditions: Conc. 50 µM; shift in voltage-dependence of inactivation; listed as MC-I-159b
row,SMILES,Inactivation ΔV0.3
1,C[C@H](NS(=O)(=O)c1ccc(N)cc1)C(=O)NC(=O)Nc1cc(C(F)(F)F)ccc1O [Compound 13],shifted the voltage-dependence of inactivation to depolarized potentials

# Same assay, conditions: Conc. 50 µM; tail current relative to baseline
row,SMILES,Amplitude I/Icon
1,C[C@H](NS(=O)(=O)c1ccc(N)cc1)C(=O)NC(=O)Nc1cc(C(F)(F)F)ccc1O [Compound 13],1±0.03
2,C[C@H](NS(=O)(=O)c1ccc([N+](=O)[O-])cc1)C(=O)NC(=O)Nc1cc(C(F)(F)F)ccc1O [Compound 14],0.39±0.04
3,CN(C(=O)c1cc(C(F)(F)F)ccc1Cl)c1ccccc1 [Compound 19],0.7±0.06

# Same assay, conditions: Conc. 50 µM; tail current relative to baseline; listed as MC-I-159b
row,SMILES,Amplitude I/Icon
1,C[C@H](NS(=O)(=O)c1ccc(N)cc1)C(=O)NC(=O)Nc1cc(C(F)(F)F)ccc1O [Compound 13],did not produce pharmacological block

# Same assay, conditions: Conc. 50 µM; tail current relative to baseline; listed as MC-I-169b
row,SMILES,Amplitude I/Icon
1,C[C@H](NS(=O)(=O)c1ccc([N+](=O)[O-])cc1)C(=O)NC(=O)Nc1cc(C(F)(F)F)ccc1O [Compound 14],significantly more pharmacologic block

# Same assay, conditions: Conc. 100 µM; deactivation time constant relative to baseline
row,SMILES,Deactivation Δλ/λcon
1,COCOc1ccc(C(F)(F)F)cc1N [Compound 20],−0.06±0.2

# Same assay, conditions: Conc. 100 µM; shift in voltage-dependence of activation
row,SMILES,Activation V1/2 (mV)
1,COCOc1ccc(C(F)(F)F)cc1N [Compound 20],−3.3±1.3

# Same assay, conditions: Conc. 100 µM; shift in voltage-dependence of inactivation
row,SMILES,Inactivation ΔV0.3
1,COCOc1ccc(C(F)(F)F)cc1N [Compound 20],−1±0

# Same assay, conditions: Conc. 100 µM; tail current relative to baseline
row,SMILES,Amplitude I/Icon
1,COCOc1ccc(C(F)(F)F)cc1N [Compound 20],0.9±0.04
